Assay [1] has as its system THP-1 cells. Briefly: IL-1β release in THP-1 cells. The class given is cell-based. Particulars: naringin 100 μM pre-treatment 1 hour. How it is done:
(§1) Cell Culture and Treatment: THP-1 cells (from American Type Culture Collection, Manassas, Virginia) were cultured in RPMI 1640. They were pre-treated with naringin (Sigma, 91842; 100 μM) for 1 hour, followed by cultivation in serum-free medium containing oxLDL and oxHDL (50 μg/mL) for 3 hours. The culture condition was maintained at 37° C. and with 5% CO2.
Measurement of IL-1β: IL-1β was measured using a commercially available IL-1β assay kit according to the manufacturer's instructions.

The subject of assay [2] is oxidized low-density lipoprotein (oxLDL). Briefly: drug screening among 200 natural products for neutralizing oxLp: affinity and surface charge, oxLDL. The class given is binding. From the text: (§2) This unregulated process of lipid accumulation and inflammatory reaction, induced by oxLp-NLRP3 complexes, accelerates the progression of hyperlipidemia. Considering the role of oxLp-NLRP3 complexes in the progression of hyperlipidemia, a drug screening technique was employed to search for potential compounds among 200 natural products with the aim of neutralizing oxLp. […] Therefore, naringin was selected for further investigation.

The subject of a further assay is oxLDL-NLRP3 complexes. Briefly: formation of oxLDL-NLRP3 complexes in THP-1 cells (fluorescence imaging). The class given is cell-based. To be noted: naringin 100 μM pre-treatment 1 hour, oxLDL 50 μg/mL 3 hours. Here is the method: as §1
In assay [3] the test system is hyperlipidemia model Ldr1−/− (C57BL/6J) mice. The assay is described as follows: lipid accumulation / lesions in carotid arteries, aortic roots and liver of hyperlipidemic mice (Oil Red O). Format: in vivo. To be noted: high-fat diet 16 weeks, naringin 20 mg/kg daily intraperitoneal, RAPA 40 mg/kg in diet. The text has this:
To evaluate the synergistic therapeutic effects of naringin and rapamycin on hyperlipidemia mice (FIG. 4), a hyperlipidemia model was established using Ldr1^−/− (C57BL/6J) mice. […] Subsequently, mouse serum, tissues of carotid arteries, liver, and aortic root were collected for analysis. Assessment of Lesions in Carotid Arteries, Aortic Roots, and Liver Tissues: Carotid arteries, hearts, and livers of mice were dissected, fixed overnight with 4% PFA, and carotid arteries were stained with Oil Red O after gently removing adherent (outer membrane) fat and flattening them from the carotid arteries. The stained aortas were placed on anti-fall-off slides, fully unfolded, and images were captured using a high-resolution camera. Hearts and livers were embedded in OCT tissue, and 7-10 μm thick continuous sections were collected. Staining was performed with Oil Red O and hematoxylin and eosin. Stained sections were analyzed using an optical microscope. ImageJ (version 2.10) was used for quantitative analysis of the images. Lesion areas were assessed according to the percentage of Oil Red 0-positive areas in the total sampled area.

Assay [4] has as its system oxidized high-density lipoprotein (oxHDL). The assay is described as follows: drug screening among 200 natural products for neutralizing oxLp: affinity and surface charge, oxHDL. Format: binding.
Source text: as §2

In assay [5] the test system is THP-1 cells. The assay is described as follows: intracellular cholesterol accumulation in THP-1 cells. Particulars: naringin 100 μM pre-treatment 1 hour. Format: cell-based. Here is the method:
as §1
Measurement of Intracellular Cholesterol: Intracellular cholesterol was determined using a commercially available intracellular cholesterol assay kit according to the manufacturer's instructions.

In the next assay the test system is oxHDL-NLRP3 complexes. The assay is described as follows: formation of oxHDL-NLRP3 complexes in THP-1 cells (fluorescence imaging). Format: cell-based. Particulars: naringin 100 μM pre-treatment 1 hour, oxHDL 50 μg/mL 3 hours. How it is done: as §1

For `C[C@@H]1O[C@@H](O[C@H]2[C@H](Oc3cc(O)c4c(c3)O[C@H](c3ccc(O)cc3)CC4=O)O[C@H](CO)[C@@H](O)[C@@H]2O)[C@H](O)[C@H](O)[C@H]1O` [naringin], in the assay on THP-1 cells [1] (oxHDL 50 μg/mL 3 hours), the “oxHDL-induced IL-1β release” value is listed as “reduced”. Moreover, the “oxLDL-induced IL-1β release” value in the assay on THP-1 cells [1] (oxLDL 50 μg/mL 3 hours) is “reduced”. The “neutralizing the negative charge on the surface of oxLDL” value in assay [2] is recorded as “capable of neutralizing the negative charge”. Besides, the “affinity for oxLDL” value in assay [2] (drug screening) is “high affinity”. Moreover, in the assay on oxLDL-NLRP3 complexes, the “formation of complexes between oxLDL and NLRP3” value was “inhibited the formation of complexes”. In assay [3], the “lipid accumulation in the aortic roots” value is listed as “alleviated lipid accumulation”, the “lipid accumulation in the carotid arteries” value is “alleviated lipid accumulation” and the “lipid accumulation in the livers” value was “alleviated lipid accumulation”. In addition, the “neutralizing the negative charge on the surface of oxHDL” value in assay [4] is recorded as “capable of neutralizing the negative charge”. For the same compound, the “affinity for oxHDL” value in assay [4] (drug screening) was “high affinity”. Besides, the oxHDL-induced cholesterol accumulation result in the assay with THP-1 cells [5] (oxHDL 50 μg/mL 3 hours) is reported as “reduced”. In addition, in the assay on THP-1 cells [5] (oxLDL 50 μg/mL 3 hours), the oxLDL-induced cholesterol accumulation result was “reduced”. The “formation of complexes between oxHDL and NLRP3” value in the assay with oxHDL-NLRP3 complexes was “inhibited the formation of complexes”.

For the origin of these results see patent US20240122956A1, “Application of Naringin Combined with Rapamycin in Preparation of Medications for Treating Hyperlipidemia” (AIR FORCE MEDICAL UNIVERSITY, priority 2023, published 2024).
